# Test results from US9943529B2, “Methods for reducing cellular proliferation and treating certain diseases” (BRIGHAM YOUNG UNIVERSITY, priority 2013, dated 2018).
# Assays:
# Conditions in all cases: 10 μM, 48 hours
# A498 = test: NCI screen antiproliferative activity, sulforhodamine B, Renal Cancer panel; assay type: cell-based, human
# Procedure: (§1) The antiproliferative activity of compounds were determined in the National Cancer Institute (NCI) screen (Drug. Dev. Res. 1995, 34, 91-109; J. Natl. Cancer Inst. 1990, 82, 1107-1112; Drug Dev. Res. 1995, 34, 91-109). For certain compounds, cells of approximately 60 different human cancer cell lines were incubated for 48 hours with five 10-fold dilutions of the tested compounds starting from 100 μM and then treated with sulforhodamine B dye. For other compounds, cells of approximately 60 different human cancer cell lines were incubated for 48 hours with a concentration of 10 μM test compound. The ratios of recorded optical densities relative to that of the control were plotted as a function of the common logarithm of the tested compound concentrations or growth percent (for single concentration tests). The interpolation between the points located above and below the 50% percentage growth provided 50% growth inhibition (GI50) values. Total growth inhibition (TGI) and 50% lethal concentrations (LC50) were also calculated using reported methods. A “-” means not tested and/or not-determined.
# MALME-3M = test: NCI screen antiproliferative activity, sulforhodamine B, Melanoma panel; assay type: cell-based, human
# DU-145 = tested on: DU-145
# HL-60(TB) = test: NCI screen antiproliferative activity, sulforhodamine B, Leukemia panel; assay type: cell-based, human
# Procedure: as §1
# CCRF-CEM = test: as above; assay type: cell-based, human
# Procedure: as §1
# MDA-MB-231/ATCC = tested on: MDA-MB-231/ATCC
# A549/ATCC = tested on: A549/ATCC
# PC-3 = tested on: PC-3
# SNB-19 = tested on: SNB-19
# NCI-H226 = tested on: NCI-H226
# HS 578T = test: NCI screen antiproliferative activity, sulforhodamine B, Breast Cancer panel; assay type: cell-based, human
# HCT-15 = tested on: HCT-15
# CAKI-1 = tested on: CAKI-1
# RPMI-8226 = test: NCI screen antiproliferative activity, sulforhodamine B, Leukemia panel; assay type: cell-based, human
# MOLT-4 = test: as above; assay type: cell-based, human
# SW-620 = test: NCI screen antiproliferative activity, sulforhodamine B, Colon Cancer panel; assay type: cell-based, human
# OVCAR-5 = tested on: OVCAR-5
# SN12C = tested on: SN12C
# SK-MEL-5 = test: NCI screen antiproliferative activity, sulforhodamine B, Melanoma panel; assay type: cell-based, human
# T-47D = tested on: T-47D
# UO-31 = tested on: UO-31
# IGROV1 = tested on: IGROV1
# SF-539 = tested on: SF-539
# KM12 = test: NCI screen antiproliferative activity, sulforhodamine B, Colon Cancer panel; assay type: cell-based, human
# LOX IMVI = test: NCI screen antiproliferative activity, sulforhodamine B, Melanoma panel; assay type: cell-based, human
# TK-10 = tested on: TK-10
# COLO 205 = test: NCI screen antiproliferative activity, sulforhodamine B, Colon Cancer panel; assay type: cell-based, human
# NCI-H322M = tested on: NCI-H322M
# MDA-MB-435 = tested on: MDA-MB-435
# HCT-116 = tested on: HCT-116
# 786-0 = tested on: 786-0
# BT-549 = tested on: BT-549
# NCI/ADR-RES = test: NCI screen antiproliferative activity, sulforhodamine B, Ovarian Cancer panel; assay type: cell-based, human
# Procedure: as §1
# MDA-MB-468 = test: NCI screen antiproliferative activity, sulforhodamine B, Breast Cancer panel; assay type: cell-based, human
# Procedure: as §1
# HCC-2998 = tested on: HCC-2998
# OVCAR-3 = tested on: OVCAR-3
# SF-268 = tested on: SF-268
# NCI-H23 = tested on: NCI-H23
# SK-OV-3 = tested on: SK-OV-3
# NCI-H460 = tested on: NCI-H460
# K-562 = test: NCI screen antiproliferative activity, sulforhodamine B, Leukemia panel; assay type: cell-based, human
# SR = test: as above; assay type: cell-based, human
# HT29 = tested on: HT29
# RXF 393 = tested on: RXF 393
# SK-MEL-28 = tested on: SK-MEL-28
# HOP-92 = tested on: HOP-92
# MCF7 = tested on: MCF7
# ACHN = tested on: ACHN
# OVCAR-4 = tested on: OVCAR-4
# SK-MEL-2 = tested on: SK-MEL-2
# HOP-62 = tested on: HOP-62
# OVCAR-8 = tested on: OVCAR-8
# M14 = tested on: M14
# UACC-62 = tested on: UACC-62
# NCI-H522 = tested on: NCI-H522
# SNB-75 = tested on: SNB-75
structure (smiles),measurement,setting,value
CCCCCCCCOC(=O)CC[C@@H](C)[C@H]1CC[C@H]2[C@@H]3[C@H](OC(=O)CCN)C[C@@H]4C[C@H](OC(=O)CCN)CC[C@]4(C)[C@H]3C[C@H](OC(=O)CCN)[C@]12C [CSA-44],Growth Percent,A498,130.78%
same,Growth Percent,MALME-3M,67.83%
same,Growth Percent,DU-145,74.35%
same,Growth Percent,HL-60(TB),43.69%
same,Growth Percent,CCRF-CEM,−37.46%
same,Growth Percent,MDA-MB-231/ATCC,69.26%
same,Growth Percent,A549/ATCC,81.31%
same,Growth Percent,PC-3,87.30%
same,Growth Percent,SNB-19,115.74%
same,Growth Percent,NCI-H226,89.76%
same,Growth Percent,HS 578T,79.51%
same,Growth Percent,HCT-15,101.79%
same,Growth Percent,CAKI-1,107.94%
same,Growth Percent,RPMI-8226,77.75%
same,Growth Percent,MOLT-4,26.15%
same,Growth Percent,SW-620,20.01%
same,Growth Percent,OVCAR-5,92.12%
same,Growth Percent,SN12C,77.59%
same,Growth Percent,SK-MEL-5,96.98%
same,Growth Percent,T-47D,88.83%
same,Growth Percent,UO-31,104.69%
same,Growth Percent,IGROV1,77.22%
same,Growth Percent,SF-539,56.26%
same,Growth Percent,KM12,77.75%
same,Growth Percent,LOX IMVI,63.17%
same,Growth Percent,TK-10,135.94%
same,Growth Percent,COLO 205,66.35%
same,Growth Percent,NCI-H322M,71.42%
same,Growth Percent,MDA-MB-435,74.13%
same,Growth Percent,HCT-116,49.30%
same,Growth Percent,786-0,99.05%
same,Growth Percent,BT-549,124.30%
same,Growth Percent,NCI/ADR-RES,100.83%
same,Growth Percent,MDA-MB-468,3.95%
same,Growth Percent,HCC-2998,84.20%
same,Growth Percent,OVCAR-3,107.53%
same,Growth Percent,SF-268,69.72%
same,Growth Percent,NCI-H23,90.31%
same,Growth Percent,SK-OV-3,90.91%
same,Growth Percent,NCI-H460,73.70%
same,Growth Percent,K-562,−74.53%
same,Growth Percent,SR,−12.92%
same,Growth Percent,HT29,39.62%
same,Growth Percent,RXF 393,108.72%
same,Growth Percent,SK-MEL-28,58.43%
same,Growth Percent,HOP-92,40.75%
same,Growth Percent,MCF7,10.84%
same,Growth Percent,ACHN,96.19%
same,Growth Percent,OVCAR-4,75.66%
same,Growth Percent,SK-MEL-2,126.21%
same,Growth Percent,HOP-62,37.66%
same,Growth Percent,OVCAR-8,69.53%
same,Growth Percent,M14,84.43%
same,Growth Percent,UACC-62,103.61%
same,Growth Percent,NCI-H522,10.80%
same,Growth Percent,SNB-75,63.88%
